Experimental findings from patent publication US8618151B2, “Inhibitors of HCV NS5A” (Presidio Pharmaceuticals, Inc., priority 2008, dated 2013) are described below.

The assay deals with HCV genotype 1b replicon. Description: HCV replicon assay (1b_Huh-Luc/Neo-ET cell line, luciferase readout). Format: cell-based. The settings on record: Hepatitis C virus, Huh-7, 72 h, read-out: Inhibition of HCV genotype 1b. The essentials:
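Luciferase activity (Bright-Glo) after 72 h compound exposure, in triplicate, measured replicon levels in Huh 7-derived 1b_Huh-Luc/Neo-ET cells. EC50 was fitted from percent-of-control values and determined in repeat runs.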
Background: A replicon is a self-replicating genome or part of one, used to study replication in cells.
For `COC(=O)N[C@H](C(=O)N1CCC[C@H]1c1ncc(-c2ccc3cc(-c4ccc5nc([C@@H]6CCCN6C(=O)[C@@H](NC(=O)OC)C(C)C)[nH]c5c4)ccc3n2)[nH]1)C(C)C` [compound 209], the EC50 was < 1 nM. `COC(=O)N[C@H](C(=O)N1CCC[C@H]1c1nc2ccc(-c3ccc4nc(-c5cnc([C@@H]6CCCN6C(=O)[C@H](NC(=O)OC)c6ccccc6)[nH]5)ccc4c3)cc2[nH]1)C(C)C` [compound 210]: the EC50 is < 1 nM. Regarding `COC(=O)N[C@H](C(=O)N1CCC[C@H]1c1nc2ccc(-c3ccc4nc(-c5cnc([C@@H]6CCCN6C(=O)[C@@H](NC(=O)OC)C6CCOCC6)[nH]5)ccc4c3)cc2[nH]1)C(C)C` [compound 211], the EC50 was < 1 nM. Turning to `COC(=O)N[C@H](C(=O)N1CCC[C@H]1c1nc2ccc(-c3ccc4cc(-c5cnc([C@@H]6CCCN6C(=O)[C@H](NC(=O)OC)c6ccccc6)[nH]5)ccc4c3)cc2[nH]1)C1CCOCC1` [compound 212], the EC50 is < 1 nM.

On to `COC(=O)N[C@H](C(=O)N1CCC[C@H]1c1ncc(-c2ccc3cc(-c4ccc5nc([C@@H]6CCCN6C(=O)[C@@H](c6ccccc6)N6CCOCC6)[nH]c5c4)ccc3c2)[nH]1)C(C)C` [compound 213], for which the EC50 was < 1 nM. Take `COC(=O)N[C@H](C(=O)N1CCC[C@H]1c1ncc(-c2ccc3c(-c4ccc5[nH]c([C@@H]6CCCN6C(=O)[C@@H](NC(=O)OC)C(C)C)nc5c4)cccc3c2)[nH]1)C(C)C` [compound 214]: the EC50 lay within 10 to 999 nM. Take `COC(=O)N[C@H](C(=O)N1CCC[C@H]1c1nc2ccc(-c3cccc4c(-c5cnc([C@@H]6CCCN6C(=O)[C@@H](NC(=O)OC)C6CCOCC6)[nH]5)cccc34)cc2[nH]1)C(C)C` [compound 215]: the EC50 was < 1 nM.

As for `COC(=O)N[C@H](C(=O)N1CCC[C@H]1c1nc2ccc(-c3cc4ccc(-c5cnc([C@@H]6CCCN6C(=O)[C@@H](NC(=O)OC)C6CCOCC6)[nH]5)cc4cn3)cc2[nH]1)C(C)C` [compound 216], the EC50 was < 1 nM. With `COC(=O)N[C@H](C(=O)N1CCC[C@H]1c1ncc(-c2ccc3cc(-c4ccc5nc([C@@H]6CCCN6C(=O)[C@@H](NC(=O)OC)C6CCOCC6)[nH]c5c4)ncc3c2)[nH]1)C1CCOCC1` [compound 217], the EC50 lay in the range of 1 to 9.9 nM. Take `COC(=O)N[C@H](C(=O)N1CCC[C@H]1c1ncc(-c2ccc3cc(-c4ccc5nc([C@@H]6CCCN6C(=O)[C@@H](NC(=O)OC)C6CCCC6)[nH]c5c4)ccc3c2)[nH]1)C1CCCC1` [compound 218]: the EC50 is < 1 nM. As for `COC(=O)N[C@H](C(=O)N1CCC[C@H]1c1ncc(-c2ccc(-c3nc4ccc(-c5cnc([C@@H]6CCCN6C(=O)[C@@H](NC(=O)OC)C(C)C)[nH]5)cc4s3)cc2)[nH]1)C(C)C` [compound 229], the EC50 is < 1 nM. Regarding `COC(=O)N[C@@H](C(=O)N1CCC[C@H]1c1ncc(-c2ccc(-c3nc4ccc(-c5cnc([C@@H]6CCCN6C(=O)[C@H](NC(=O)OC)c6ccccc6)[nH]5)cc4s3)cc2)[nH]1)c1ccccc1` [compound 230], the EC50 is < 1 nM. For the compound `COC(=O)N[C@H](C(=O)N1CCC[C@H]1c1ncc(-c2ccc(-c3nc4ccc(-c5cnc([C@@H]6CCCN6C(=O)[C@@H](NC(=O)OC)C(C)C)[nH]5)cc4n3C)cc2)[nH]1)C(C)C` [compound 231], the EC50 is < 1 nM. For the compound `COC(=O)N[C@H](C(=O)N1CCC[C@H]1c1ncc(-c2ccc(-c3nc4cc(-c5cnc([C@@H]6CCCN6C(=O)[C@@H](NC(=O)OC)C(C)C)[nH]5)ccc4n3C)cc2)[nH]1)C(C)C` [compound 232], the EC50 was < 1 nM. Then `COC(=O)N[C@@H](C(=O)N1CCC[C@H]1c1ncc(-c2ccc(-c3nc4cc(-c5cnc([C@@H]6CCCN6C(=O)[C@H](NC(=O)OC)c6ccccc6)[nH]5)ccc4n3C)cc2)[nH]1)c1ccccc1` [compound 233], with < 1 nM; and `COC(=O)N[C@H](C(=O)N1CCC[C@H]1c1ncc(-c2ccc(-c3nc4ccc(-c5cnc([C@@H]6CCCN6C(=O)[C@@H](NC(=O)OC)C(C)C)[nH]5)cc4o3)cc2)[nH]1)C(C)C` [compound 234], with < 1 nM; and `COC(=O)N[C@@H](C(=O)N1CCC[C@H]1c1ncc(-c2ccc(-c3nc4ccc(-c5cnc([C@@H]6CCCN6C(=O)[C@H](NC(=O)OC)c6ccccc6)[nH]5)cc4o3)cc2)[nH]1)c1ccccc1` [compound 235], with < 1 nM. Then `COC(=O)N[C@H](C(=O)N1CCC[C@H]1c1ncc(-c2ccc(-c3nc4cc(-c5cnc([C@@H]6CCCN6C(=O)[C@@H](NC(=O)OC)C(C)C)[nH]5)ccc4o3)cc2)[nH]1)C(C)C` [compound 236], with < 1 nM; and `COC(=O)N[C@@H](C(=O)N1CCC[C@H]1c1ncc(-c2ccc(-c3nc4cc(-c5cnc([C@@H]6CCCN6C(=O)[C@H](NC(=O)OC)c6ccccc6)[nH]5)ccc4o3)cc2)[nH]1)c1ccccc1` [compound 237], with < 1 nM. As to `COC(=O)N[C@H](C(=O)N1CCC[C@H]1c1ncc(-c2ccc(-c3nc4cc(-c5cnc([C@@H]6CCCN6C(=O)[C@@H](NC(=O)OC)[C@@H](C)OC)[nH]5)ccc4o3)cc2)[nH]1)[C@@H](C)OC` [compound 238], the EC50 is < 1 nM. Then `COC(=O)N[C@H](C(=O)N1CCC[C@H]1c1ncc(-c2ccc(-c3nc4cc(-c5cnc([C@@H]6CCCN6C(=O)[C@@H](NC(=O)OC)C6CC6)[nH]5)ccc4o3)cc2)[nH]1)C1CC1` [compound 239], with < 1 nM; and `COC(=O)N[C@H](C(=O)N1CCC[C@H]1c1ncc(-c2ccc(-c3nc4cc(-c5cnc([C@@H]6CCCN6C(=O)[C@@H](NC(=O)OC)C(C)C)[nH]5)ccc4s3)cc2)[nH]1)C(C)C` [compound 240], with < 1 nM. `COC(=O)N[C@H](C(=O)N1CCC[C@H]1c1ncc(-c2ccc(-c3nc4ccc(-c5cnc([C@@H]6CCCN6C(=O)[C@H](NC(=O)OC)c6ccccc6)[nH]5)cc4s3)cc2)[nH]1)C(C)C` [compound 241]: the EC50 is < 1 nM. As for `COC(=O)N[C@H](C(=O)N1CCC[C@H]1c1ncc(-c2ccc(-c3nc4ccc(-c5cnc([C@@H]6CCCN6C(=O)[C@H](NC(=O)OC(C)(C)C)c6ccccc6)[nH]5)cc4s3)cc2)[nH]1)C(C)C` [compound 242], the EC50 is < 1 nM.

On to `COC(=O)N[C@H](C(=O)N1CCCC[C@H]1c1ncc(-c2ccc(-c3nc4ccc(-c5cnc([C@@H]6CCCCN6C(=O)[C@@H](NC(=O)OC)C(C)C)[nH]5)cc4s3)cc2)[nH]1)C(C)C` [compound 243], for which the EC50 is < 1 nM. `CCNC(=O)N[C@@H](C(=O)N1CCC[C@H]1c1ncc(-c2ccc3nc(-c4ccc(-c5cnc([C@@H]6CCCN6C(=O)[C@@H](NC(=O)OC)C(C)C)[nH]5)cc4)sc3c2)[nH]1)c1ccccc1` [compound 244]: the EC50 is < 1 nM. With `CNC(=O)N[C@@H](C(=O)N1CCC[C@H]1c1ncc(-c2ccc3nc(-c4ccc(-c5cnc([C@@H]6CCCN6C(=O)[C@@H](NC(=O)OC)C(C)C)[nH]5)cc4)sc3c2)[nH]1)c1ccccc1` [compound 245], the EC50 is < 1 nM. For the compound `COC(=O)N[C@H](C(=O)N1CCC[C@H]1c1ncc(-c2ccc(-c3nc4ccc(-c5cnc([C@@H]6CCCN6C(=O)OCc6ccccc6)[nH]5)cc4s3)cc2)[nH]1)C(C)C` [compound 246], the EC50 is < 1 nM. Take `COC(=O)N[C@H](C(=O)N1CCC[C@H]1c1ncc(-c2ccc(-c3nc4ccc(-c5cnc([C@@H]6CCCN6C(=O)[C@H](NC(=O)OC(C)(C)C)c6ccccc6)[nH]5)cc4o3)cc2)[nH]1)C(C)C` [compound 247]: the EC50 is < 1 nM. On to `COC(=O)N[C@@H](C(=O)N1CCCC[C@H]1c1ncc(-c2ccc(-c3nc4ccc(-c5cnc([C@@H]6CCCCN6C(=O)[C@H](NC(=O)OC)c6ccccc6)[nH]5)cc4s3)cc2)[nH]1)c1ccccc1` [compound 248], for which the EC50 is < 1 nM.

As to `COC(=O)N[C@H](C(=O)N1CCC[C@H]1c1ncc(-c2ccc(-c3nc4ccc(-c5cnc([C@@H]6CCCN6C(=O)[C@H](NC(=O)OC)c6ccccc6)[nH]5)cc4o3)cc2)[nH]1)C(C)C` [compound 249], the EC50 is < 1 nM.

On to `CC(C)(C)OC(=O)N1CCCC1c1ncc(-c2ccc(-c3nc4cc(-c5cnc([C@@H]6CCCN6C(=O)OCc6ccccc6)[nH]5)ccc4s3)cc2)[nH]1` (stereo partly shown) [compound 250], for which the EC50 was 10 to 999 nM.

Regarding `CNC(=O)N[C@@H](C(=O)N1CCC[C@H]1c1ncc(-c2ccc3nc(-c4ccc(-c5cnc([C@@H]6CCCN6C(=O)[C@@H](NC(=O)OC)C(C)C)[nH]5)cc4)oc3c2)[nH]1)c1ccccc1` [compound 251], the EC50 was < 1 nM. In the case of `CCNC(=O)N[C@@H](C(=O)N1CCC[C@H]1c1ncc(-c2ccc3nc(-c4ccc(-c5cnc([C@@H]6CCCN6C(=O)[C@@H](NC(=O)OC)C(C)C)[nH]5)cc4)oc3c2)[nH]1)c1ccccc1` [compound 252], the EC50 was < 1 nM. Then `COC(=O)N[C@H](C(=O)N1CCC[C@H]1c1ncc(-c2ccc(-c3nc4ccc(-c5cnc([C@@H]6CCCN6C(=O)[C@@H](NC(=O)OC)[C@@H](C)OC)[nH]5)cc4o3)cc2)[nH]1)C(C)C` [compound 253], with < 1 nM; and `COC(=O)N[C@H](C(=O)N1CCC[C@H]1c1ncc(-c2ccc3nc(-c4ccc(-c5cnc([C@@H]6CCCN6C(=O)[C@H](NC(=O)OC(C)(C)C)c6ccccc6)[nH]5)cc4)oc3c2)[nH]1)C(C)C` [compound 254], with < 1 nM; and `COC(=O)N[C@H](C(=O)N1CCC[C@H]1c1ncc(-c2ccc3nc(-c4ccc(-c5cnc([C@@H]6CCCN6C(=O)[C@H](NC(=O)OC)c6ccccc6)[nH]5)cc4)oc3c2)[nH]1)C(C)C` [compound 255], with < 1 nM. As for `CNC(=O)N[C@@H](C(=O)N1CCC[C@H]1c1ncc(-c2ccc(-c3nc4ccc(-c5cnc([C@@H]6CCCN6C(=O)[C@@H](NC(=O)OC)C(C)C)[nH]5)cc4o3)cc2)[nH]1)c1ccccc1` [compound 256], the EC50 is < 1 nM. Then `CCNC(=O)N[C@@H](C(=O)N1CCC[C@H]1c1ncc(-c2ccc(-c3nc4ccc(-c5cnc([C@@H]6CCCN6C(=O)[C@@H](NC(=O)OC)C(C)C)[nH]5)cc4o3)cc2)[nH]1)c1ccccc1` [compound 257], with < 1 nM; and `COC(=O)N[C@H](C(=O)N1CCC[C@H]1c1ncc(-c2ccc(-c3ccc4nc(-c5cnc([C@@H]6CCCN6C(=O)[C@@H](NC(=O)OC)C(C)C)[nH]5)sc4c3)cc2)[nH]1)C(C)C` [compound 258], with < 1 nM.
